From US9499538B2, “Estrogen receptor modulators and uses thereof” (Seragon Pharmaceuticals, Inc., priority 2012, dated 2016)

Key:
[1] = biological target: T1, ER-α in MCF-7 cells (Homo sapiens, UniProt P03372); assay: Breast Cancer Cell ER-α In Cell Western Assay (SP1); type: cell-based; conditions: 4 or 24 hr post compound addition; for Emax: MCF7, SP1 antibody, read-out: ER-α In Cell Western Assay (SP1) Max Response; for DC50: SP1 antibody, read-out: ER-α In Cell Western Assay (SP1) IC50
T1 construct: endogenous in cells; host or cells: MCF-7
T1 sequence (P03372 1-595): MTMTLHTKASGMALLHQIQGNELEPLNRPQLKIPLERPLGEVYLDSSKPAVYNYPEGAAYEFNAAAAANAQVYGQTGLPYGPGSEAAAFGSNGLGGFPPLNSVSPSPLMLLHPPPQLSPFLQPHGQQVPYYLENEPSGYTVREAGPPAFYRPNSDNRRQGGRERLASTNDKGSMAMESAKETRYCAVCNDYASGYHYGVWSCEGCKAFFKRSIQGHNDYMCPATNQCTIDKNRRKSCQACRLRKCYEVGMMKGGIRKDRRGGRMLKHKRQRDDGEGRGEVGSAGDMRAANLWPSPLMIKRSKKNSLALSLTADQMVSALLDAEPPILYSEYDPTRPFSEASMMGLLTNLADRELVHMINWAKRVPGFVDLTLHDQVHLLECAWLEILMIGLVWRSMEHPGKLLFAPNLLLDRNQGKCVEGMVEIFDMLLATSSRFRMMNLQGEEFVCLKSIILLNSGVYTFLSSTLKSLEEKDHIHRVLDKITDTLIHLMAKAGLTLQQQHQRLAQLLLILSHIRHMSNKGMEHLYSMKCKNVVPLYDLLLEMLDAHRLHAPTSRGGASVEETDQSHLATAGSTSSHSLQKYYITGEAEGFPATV
Outline: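 ER-α levels quantified by in-cell western: SP1 signal normalised to DRAQ5 DNA stain, relative to untreated cells (% ER). Compounds at 0.3–0.000003 μM final, 11-point semilog series, 4 or 24 h exposure of MCF-7 cells grown in charcoal-stripped serum.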

[2] = test system: MCF-7 cells; assay: Breast Cancer Cell Viability Assays (MCF-7, CellTiter-Glo); type: cell-based; conditions: 5 days' compound exposure; for IC50: Homo sapiens, MCF7, 120 h
Outline: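 Percent viability, background-subtracted against untreated wells, was taken from CellTiter-Glo luminescence after 5 days' exposure of MCF-7 cells. Compounds were tested at eleven semilog concentrations, final 0.3–0.000003 μM, in RPMI containing 10% FBS.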

| Compound | Emax [1] [%] | DC50 [1] [nM] | IC50 [2] [nM] | MCF7 Viability Assay Max Response [2] |
| --- | --- | --- | --- | --- |
| COc1cccc2c(/C(=C(/c3ccc(F)cc3Cl)C3CCC3)c3ccc(/C=C/C(=O)O)cc3)coc12 [Example 76, (E)-3-(4-((E)-2-(2-Chloro-4-fluorophenyl)-2-cyclobutyl-1-(7-methoxybenzofuran-3-yl)vinyl)phenyl)acrylic acid] | ≥ 40 | ≤ 100 | ≤ 100 | ++ (++ = a single % value ≧ 40%) |
| COc1cccc2c(/C(=C(/c3ccncc3Cl)C3CCC3)c3ccc(/C=C/C(=O)O)cc3)coc12 [Example 78, (E)-3-(4-((E)-2-(3-Chloropyridin-4-yl)-2-cyclobutyl-1-(7-methoxybenzofuran-3-yl)vinyl)phenyl)acrylic acid] | ≥ 40 | ≤ 100 | ≤ 100 | ++ (++ = a single % value ≧ 40%) |
| O=C(O)/C=C/c1ccc(/C(=C(\c2ccc(F)cc2Cl)C2CCC2)c2ccc3[nH]nnc3c2)cc1 [Example 79, (E)-3-(4-((E)-1-(1H-Benzo[d][1,2,3]triazol-5-yl)-2-(2-chloro-4-fluoro-phenyl)-2-cyclobutylvinyl)phenyl)acrylic acid] | ≥ 40 | ≤ 100 | ≤ 100 | ++ (++ = a single % value ≧ 40%) |
| O=C(O)/C=C/c1ccc(/C(=C(\c2ccc(F)cc2Cl)C2CCC2)c2cccc3[nH]ncc23)cc1 [Example 80, (E)-3-(4-((E)-2-(2-Chloro-4-fluorophenyl)-2-cyclobutyl-1-(1H-indazol-4-yl)vinyl)phenyl)acrylic acid] | ≥ 40 | ≤ 100 | ≤ 100 | ++ (++ = a single % value ≧ 40%) |
| O=C(O)/C=C/c1ccc(/C(=C(\c2cccc(-n3cccn3)c2)C2CCC2)c2ccc3[nH]nc(F)c3c2)cc1 [Example 84, (E)-3-(4-((E)-2-(3-(1H-Pyrazol-1-yl)phenyl)-2-cyclobutyl-1-(3-fluoro-1H-indazol-5-yl)vinyl)phenyl)acrylic acid] | ≥ 40 | ≤ 100 | ≤ 100 | ++ (++ = a single % value ≧ 40%) |
| COc1cc(C)c(/C(=C(\c2ccc(/C=C/C(=O)O)cc2)c2ccc3scnc3c2)C2CCC2)cn1 [Example 85, (E)-3-(4-((E)-1-(Benzo[d]thiazol-5-yl)-2-cyclobutyl-2-(6-methoxy-4-methylpyridin-3-yl)vinyl)phenyl)acrylic acid] | ≥ 40 | ≤ 100 | ≤ 100 | ++ (++ = a single % value ≧ 40%) |
| COc1nccc(/C(=C(\c2ccc(/C=C/C(=O)O)cc2)c2ccc3[nH]nc(F)c3c2)C2CCC2)c1C [Example 89, (E)-3-(4-((E)-2-Cyclobutyl-1-(3-fluoro-1H-indazol-5-yl)-2-(2-methoxy-3-methylpyridin-4-yl)vinyl)phenyl)acrylic acid] | ≥ 40 | ≤ 100 | ≤ 100 | ++ (++ = a single % value ≧ 40%) |
| N#Cc1cc(F)ccc1/C(=C(\c1ccc(/C=C/C(=O)O)cc1)c1ccc2scnc2c1)C1CCC1 [Example 90, (E)-3-(4-((E)-1-(Benzo[d]thiazol-5-yl)-2-(2-cyano-4-fluorophenyl)-2-cyclobutylvinyl)phenyl)acrylic acid] | ≥ 40 | ≤ 100 | ≤ 100 | ++ (++ = a single % value ≧ 40%) |
| N#Cc1ccc(/C(=C(\c2ccc(/C=C/C(=O)O)cc2)c2ccc3scnc3c2)C2CCC2)c(F)c1 [Example 95, (E)-3-(4-((E)-1-(Benzo[d]thiazol-5-yl)-2-(4-cyano-2-fluorophenyl)-2-cyclobutylvinyl)phenyl)acrylic acid] | ≥ 40 | ≤ 100 | ≤ 100 | ++ (++ = a single % value ≧ 40%) |

Continued, in another order:

| Emax [1] [%] | DC50 [1] [nM] | IC50 [2] [nM] | Compound | MCF7 Viability Assay Max Response [2] |
| --- | --- | --- | --- | --- |
| ≥ 40 | ≤ 100 | ≤ 100 | O=C(O)/C=C/c1ccc(/C(=C(\c2ccc(F)cc2Cl)C2CCC2)c2cc3ccccc3o2)cc1 [Example 75, (E)-3-(4-((E)-1-(Benzofuran-2-yl)-2-(2-chloro-4-fluorophenyl)-2-cyclobutylvinyl)phenyl)acrylic acid] | ++ (++ = a single % value ≧ 40%) |
| ≥ 40 | ≤ 100 | ≤ 100 | O=C(O)/C=C/c1ccc(/C(=C(\c2ccncc2Cl)C2CCC2)c2cc3ccccc3o2)cc1 [Example 77, (E)-3-(4-((E)-1-(Benzofuran-2-yl)-2-(3-chloropyridin-4-yl)-2-cyclobutylvinyl)phenyl)acrylic acid] | ++ (++ = a single % value ≧ 40%) |
| ≥ 40 | ≤ 100 | ≤ 100 | COc1cc(/C(=C(\c2ccc(/C=C/C(=O)O)cc2)c2ccc3[nH]nc(F)c3c2)C2CCC2)ccn1 [Example 81, (E)-3-(4-((E)-2-Cyclobutyl-1-(3-fluoro-1H-indazol-5-yl)-2-(2-methoxypyridin-4-yl)vinyl)phenyl)acrylic acid] | ++ (++ = a single % value ≧ 40%) |
| ≥ 40 | ≤ 100 | ≤ 100 | N#Cc1cscc1/C(=C(\c1ccc(/C=C/C(=O)O)cc1)c1ccc2[nH]nc(F)c2c1)C1CCC1 [Example 82, (E)-3-(4-((E)-2-(4-Cyanothiophen-3-yl)-2-cyclobutyl-1-(3-fluoro-1H-indazol-5-yl)vinyl)phenyl)acrylic acid] | ++ (++ = a single % value ≧ 40%) |
| ≥ 40 | ≤ 100 | ≤ 100 | Cc1cnccc1/C(=C(\c1ccc(/C=C/C(=O)O)cc1)c1ccc2scnc2c1)C1CCC1 [Example 83, (E)-3-(4-((E)-1-(Benzo[d]thiazol-5-yl)-2-cyclobutyl-2-(3-methylpyridin-4-yl)vinyl)phenyl)acrylic acid] | ++ (++ = a single % value ≧ 40%) |
| ≥ 40 | ≤ 100 | ≤ 100 | Cc1sccc1/C(=C(\c1ccc(/C=C/C(=O)O)cc1)c1ccc2scnc2c1)C1CCC1 [Example 86, (E)-3-(4-((E)-1-(Benzo[d]thiazol-5-yl)-2-cyclobutyl-2-(2-methylthiophen-3-yl)vinyl)phenyl)acrylic acid] | ++ (++ = a single % value ≧ 40%) |
| ≥ 40 | ≤ 100 | ≤ 100 | O=C(O)/C=C/c1ccc(/C(=C(\c2cccc(N3CCCC3)c2)C2CCC2)c2ccc3[nH]nc(F)c3c2)cc1 [Example 87, (E)-3-(4-((E)-2-Cyclobutyl-1-(3-fluoro-1H-indazol-5-yl)-2-(3-(pyrrolidin-1-yl)phenyl)vinyl)phenyl)acrylic acid] | ++ (++ = a single % value ≧ 40%) |
| ≥ 40 | ≤ 100 | ≤ 100 | N#Cc1cscc1/C(=C(\c1ccc(/C=C/C(=O)O)cc1)c1ccc2scnc2c1)C1CCC1 [Example 88, (E)-3-(4-((E)-1-(Benzo[d]thiazol-5-yl)-2-(4-cyanothiophen-3-yl)-2-cyclobutylvinyl)phenyl)acrylic acid] | ++ (++ = a single % value ≧ 40%) |
| ≥ 40 | ≤ 100 | ≤ 100 | COc1ccc(/C(=C(\c2ccc(/C=C/C(=O)O)cc2)c2ccc3scnc3c2)C2CCC2)cc1 [Example 91, (E)-3-(4-((E)-1-(Benzo[d]thiazol-5-yl)-2-cyclobutyl-2-(4-methoxyphenyl)vinyl)phenyl)acrylic acid] | ++ (++ = a single % value ≧ 40%) |
| ≥ 40 | ≤ 100 | ≤ 100 | COc1cccc(/C(=C(\c2ccc(/C=C/C(=O)O)cc2)c2ccc3scnc3c2)C2CCC2)c1 [Example 92, (E)-3-(4-((E)-1-(Benzo[d]thiazol-5-yl)-2-cyclobutyl-2-(3-methoxyphenyl)vinyl)phenyl)acrylic acid] | ++ (++ = a single % value ≧ 40%) |
| ≥ 40 | ≤ 100 | ≤ 100 | COc1ccc(/C(=C(\c2ccc(/C=C/C(=O)O)cc2)c2ccc3scnc3c2)C2CCC2)cn1 [Example 93, (E)-3-(4-((E)-1-(Benzo[d]thiazol-5-yl)-2-cyclobutyl-2-(6-methoxypyridin-3-yl)vinyl)phenyl)acrylic acid] | ++ (++ = a single % value ≧ 40%) |
| ≥ 40 | ≤ 100 | ≤ 100 | O=C(O)/C=C/c1ccc(/C(=C(\c2ccccc2F)C2CCC2)c2ccc3scnc3c2)cc1 [Example 94, (E)-3-(4-((E)-1-(Benzo[d]thiazol-5-yl)-2-cyclobutyl-2-(2-fluorophenyl)vinyl)phenyl)acrylic acid] | ++ (++ = a single % value ≧ 40%) |
